Data from BindingDB's records for doi:10.1021/jm021079g (Academy of Sciences of The Czech Republic, 2003).

Target: T1, Dimer of Gag-Pol polyprotein [501-599] (Human immunodeficiency virus 1, UniProt P03367)
T1 construct: 501-599
Experiment: Protease Inhibition Assay
Conditions: pH 4.7
Protocol: Inhibition constants were determined by a spectrophotometric assay with the chromogenic peptide substrate.

SMILES	Ki
CC(C)(C)OC(=O)N[C@@H](Cc1ccccc1)[C@@H](O)CN[C@@H](Cc1ccccc1)C(=O)N[C@@H](CCC(=O)O)C(=O)N[C@@H](Cc1ccccc1)C(N)=O	0.15 nM
CC(C)(C)OC(=O)N[C@@H](Cc1ccccc1)[C@@H](O)CN[C@@H](Cc1ccccc1)C(=O)N[C@@H](CCC(N)=O)C(=O)N[C@@H](Cc1ccccc1)C(N)=O	33 nM
